This note sets out measurements from US11945822B2, “Pyrazolo-triazine and/or pyrazolo-pxrimidine derivatives as selective inhibitor of cyclin dependent kinase” (QURIENT CO., LTD., priority 2018, dated 2024).

Assay [1] has as its target T1, CDK1/Cyclin B (Homo sapiens, UniProt P06493).
T1 construct: purchased Invitrogen PR4768C
The assay is described as follows: Enzymatic assay for CDK1 (FRET based LANCE Ultra kinase assay). The assay is classed as biochemical. Particulars: read-out: CDK1 enzymatic activity (IC50 range). In outline: (§1)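 TR-FRET (LANCE Ultra) kinase assay at ATP Km, ULight-MBP peptide substrate (68 nM), 8-dose 4-fold compound series in DMSO. Enzymes: […]; 60 min at 23° C., stopped with EDTA plus Eu-anti-phospho-MBP antibody, read 665/615 nm after 60 min.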

In assay [2] the test system is RPMI-8226. Nature of the assay: Cellular RPMI-8226 viability assay (CellTiter-Glo, 72 hours). The assay is classed as cell-based. The note with it: Homo sapiens. In outline: (§2)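 Steps: seed cells at per-line density; add compound, DMSO vehicle kept under 0.1% final; incubate 72 h, 37 °C, 5% CO2; lyse with CellTiter-Glo and read luminescence; run in duplicate.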
For orientation: In ATP-based viability assays light output follows the ATP content of the culture.

The target of assay [3] is T2, CDK5/p25 (Homo sapiens, UniProt Q00535).
T2 construct: purchased Invitrogen PR8543B
T2 sequence (Q00535 whole entry): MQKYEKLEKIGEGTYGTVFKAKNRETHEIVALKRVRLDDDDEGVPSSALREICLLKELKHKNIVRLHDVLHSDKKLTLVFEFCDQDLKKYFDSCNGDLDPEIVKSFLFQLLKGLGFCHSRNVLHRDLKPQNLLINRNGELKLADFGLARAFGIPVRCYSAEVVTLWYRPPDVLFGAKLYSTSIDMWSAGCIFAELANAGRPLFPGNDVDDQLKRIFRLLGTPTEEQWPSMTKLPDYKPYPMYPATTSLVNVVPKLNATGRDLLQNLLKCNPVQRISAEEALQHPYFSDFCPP
T2 sequence (Q15078 99-307 partner limits assumed): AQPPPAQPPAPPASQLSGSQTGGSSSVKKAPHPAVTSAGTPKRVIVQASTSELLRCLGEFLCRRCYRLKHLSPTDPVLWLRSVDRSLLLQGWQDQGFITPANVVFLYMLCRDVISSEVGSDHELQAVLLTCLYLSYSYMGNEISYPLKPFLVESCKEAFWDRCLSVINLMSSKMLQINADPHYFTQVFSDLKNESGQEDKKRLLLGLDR
The assay is described as follows: Enzymatic assay for CDK5 (FRET based LANCE Ultra kinase assay). The assay is classed as biochemical. Particulars: read-out: CDK5 enzymatic activity (IC50 range). In outline:
as §1
On the technique in general: In TR-FRET formats the signal depends on donor and acceptor labels being close together.

For assay [4], the target named is T3, CDK2/Cyclin A (Homo sapiens, UniProt P24941).
T3 construct: purchased Invitrogen PV6290
The assay is described as follows: Enzymatic assay for CDK2 (FRET based LANCE Ultra kinase assay). The assay is classed as biochemical. The note with it: read-out: CDK2 enzymatic activity (IC50 range). The procedure, abridged:
as §1

Assay [5] has as its target T4, CDK7/Cyclin H/MNAT1 (Homo sapiens, UniProt P50613).
T4 construct: purchased Invitrogen PR6749B
The assay is described as follows: Enzymatic assay for CDK7 (FRET based LANCE Ultra kinase assay). The assay is classed as biochemical. The note with it: for IC50: read-out: CDK7 enzymatic activity (IC50 range). The procedure, abridged: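 LANCE Ultra TR-FRET kinase assay using a ULight-labeled peptide substrate and a Eu-labeled anti-phospho antibody, with ATP at its Km. Purified CDK/cyclin complex was added to compound after brief centrifugation.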

The test system of assay [6] is MOLT-4. The assay is described as follows: Cellular MOLT-4 viability assay (CellTiter-Glo, 72 hours). The assay is classed as cell-based. Particulars: Homo sapiens, MOLT4 viability assay. In outline:
as §2

Assay [7] concerns H460. The assay is described as follows: Cellular H460 viability assay (CellTiter-Glo, 72 hours). The assay is classed as cell-based. The note with it: Homo sapiens, NCI-H460. The procedure, abridged: as §2

T4 sequence (P50613 whole entry): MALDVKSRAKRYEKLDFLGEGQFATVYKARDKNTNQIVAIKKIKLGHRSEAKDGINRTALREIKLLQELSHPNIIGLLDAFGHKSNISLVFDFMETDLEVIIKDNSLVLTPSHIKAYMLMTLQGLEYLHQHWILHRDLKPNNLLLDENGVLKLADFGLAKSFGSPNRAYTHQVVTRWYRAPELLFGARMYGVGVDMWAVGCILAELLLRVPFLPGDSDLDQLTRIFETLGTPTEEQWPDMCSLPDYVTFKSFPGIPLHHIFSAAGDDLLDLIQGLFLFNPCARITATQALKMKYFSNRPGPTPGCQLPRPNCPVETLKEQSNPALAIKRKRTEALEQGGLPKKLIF
T4 sequence (P51946 whole entry partner): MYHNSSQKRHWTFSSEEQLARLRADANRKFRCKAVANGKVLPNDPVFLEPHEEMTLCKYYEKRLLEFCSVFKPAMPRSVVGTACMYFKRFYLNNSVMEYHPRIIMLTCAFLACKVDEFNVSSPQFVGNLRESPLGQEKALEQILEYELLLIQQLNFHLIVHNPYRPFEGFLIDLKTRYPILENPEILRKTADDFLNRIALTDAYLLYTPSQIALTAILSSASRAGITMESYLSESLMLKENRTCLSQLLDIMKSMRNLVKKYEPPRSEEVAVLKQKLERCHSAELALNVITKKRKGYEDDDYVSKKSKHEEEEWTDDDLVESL
T4 sequence (P51948 whole entry partner): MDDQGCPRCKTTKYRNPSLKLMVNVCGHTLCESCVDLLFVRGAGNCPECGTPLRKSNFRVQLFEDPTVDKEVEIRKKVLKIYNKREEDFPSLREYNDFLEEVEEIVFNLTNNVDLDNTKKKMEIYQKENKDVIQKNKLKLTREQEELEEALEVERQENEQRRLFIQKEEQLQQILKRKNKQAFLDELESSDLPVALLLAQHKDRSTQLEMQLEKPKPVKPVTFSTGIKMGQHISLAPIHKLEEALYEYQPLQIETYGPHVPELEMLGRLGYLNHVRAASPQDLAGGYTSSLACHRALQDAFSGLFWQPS
T1 sequence (P06493 whole entry): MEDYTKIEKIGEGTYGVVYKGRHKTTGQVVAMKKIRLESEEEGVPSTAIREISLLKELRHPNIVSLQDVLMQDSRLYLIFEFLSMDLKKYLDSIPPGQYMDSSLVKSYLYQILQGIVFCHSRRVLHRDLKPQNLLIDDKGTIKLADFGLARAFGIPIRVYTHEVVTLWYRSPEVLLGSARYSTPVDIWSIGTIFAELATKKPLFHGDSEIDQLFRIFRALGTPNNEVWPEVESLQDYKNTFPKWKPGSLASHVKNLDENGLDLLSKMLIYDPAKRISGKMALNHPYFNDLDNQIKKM
T1 sequence (P14635 whole entry partner): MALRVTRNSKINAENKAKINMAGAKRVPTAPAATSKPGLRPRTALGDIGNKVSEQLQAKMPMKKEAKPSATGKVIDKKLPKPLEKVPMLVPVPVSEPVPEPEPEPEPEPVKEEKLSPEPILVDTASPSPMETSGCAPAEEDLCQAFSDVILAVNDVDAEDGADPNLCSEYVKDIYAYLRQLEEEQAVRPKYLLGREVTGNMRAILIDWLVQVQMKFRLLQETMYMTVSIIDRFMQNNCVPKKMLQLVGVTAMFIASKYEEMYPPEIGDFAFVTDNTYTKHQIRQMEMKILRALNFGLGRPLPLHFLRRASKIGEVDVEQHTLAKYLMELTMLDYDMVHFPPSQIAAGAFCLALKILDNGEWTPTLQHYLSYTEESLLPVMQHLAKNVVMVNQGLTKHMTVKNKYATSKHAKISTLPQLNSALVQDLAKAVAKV

One may read the IC50 as the concentration that gives 50% inhibition. As for `CC(=O)NC1CCN(c2nc(NCc3ccccc3-c3cc4ccccc4[nH]3)n3ncc(C(C)C)c3n2)CC1` [Compound 111], the IC50 in assay [1] was more than 1 µM; in assay [2], 1 to 10 µM; in assay [3] it was more than 1 µM; in assay [4], more than 1 µM; in assay [5] it was less than 0.1 µM; in assay [6], 1 to 10 µM. Also, in assay [5], the “CDK1/CDK7: Selectivity of CDK7 inhibition over CDK1 inhibition” value is “B (B=less than 200 fold, but greater than 20 fold)”. For the same molecule, the “CDK2/CDK7: Selectivity of CDK7 inhibition over CDK2 inhibition” value in assay [5] is “B (B=less than 200 fold, but greater than 20 fold)”. Moreover, in assay [5], the “CDK5/CDK7: Selectivity of CDK7 inhibition over CDK5 inhibition” value is “C (C=less than 20 fold)”.

Turning to `CC(C)c1cnn2c(NCc3ccccc3Nc3ccccc3)nc(N3CCC(N)CC3)nc12` [Compound 61], the IC50 was more than 1 µM in assay [1]; 1 to 10 µM in assay [2]; less than 1 µM in assay [7]; 0.1 to 1 µM in assay [3]; 0.1 to 1 µM in assay [4]; less than 0.1 µM in assay [5]. For the same molecule, the IC50 in assay [6] lay in the range of 1 to 10 µM. Moreover, in assay [5], the “CDK1/CDK7: Selectivity of CDK7 inhibition over CDK1 inhibition” value is on record as “B (B=less than 200 fold, but greater than 20 fold)”. The “CDK2/CDK7: Selectivity of CDK7 inhibition over CDK2 inhibition” value in assay [5] was “B (B=less than 200 fold, but greater than 20 fold)”. The “CDK5/CDK7: Selectivity of CDK7 inhibition over CDK5 inhibition” value in assay [5] is given as “C (C=less than 20 fold)”.

As to `CC(C)c1cnn2c(NCc3cccc4ccc(-n5cccn5)nc34)nc(N3CCC(N)CC3)nc12` [Compound 59], the IC50 in assay [2], in assay [7] and in assay [6] was 1 to 10 µM in each case.

For `CC(C)c1cnn2c(NCc3cccc4c3N(C)C(=O)CC4)nc(N3CCC(N)CC3)nc12` [Compound 69], the IC50 in assay [1] was 0.1 to 1 µM; in assay [2], less than 1 µM; in assay [7], less than 1 µM; in assay [3], less than 0.1 µM; in assay [4], less than 0.1 µM; in assay [5], less than 0.1 µM. This molecule yielded an IC50 in assay [6] of 1 to 10 µM. Further, the “CDK1/CDK7: Selectivity of CDK7 inhibition over CDK1 inhibition” value in assay [5] is “B (B=less than 200 fold, but greater than 20 fold)”. Besides, the “CDK2/CDK7: Selectivity of CDK7 inhibition over CDK2 inhibition” value in assay [5] is reported as “B (B=less than 200 fold, but greater than 20 fold)”. Further, in assay [5], the “CDK5/CDK7: Selectivity of CDK7 inhibition over CDK5 inhibition” value is recorded as “C (C=less than 20 fold)”.

In the case of `CC(C)c1cnn2c(NCc3ccccc3N3CCCC3)nc(N3CCC(N)CC3)nc12` [Compound 54], the IC50 is more than 1 µM in assay [1]; 1 to 10 µM in assay [2]; less than 1 µM in assay [7]; 0.1 to 1 µM in assay [3]; 0.1 to 1 µM in assay [4]; less than 0.1 µM in assay [5]. This molecule also came in with an IC50 in assay [6] of 1 to 10 µM. In addition, in assay [5], the “CDK1/CDK7: Selectivity of CDK7 inhibition over CDK1 inhibition” value is on record as “B (B=less than 200 fold, but greater than 20 fold)”. Further, the “CDK2/CDK7: Selectivity of CDK7 inhibition over CDK2 inhibition” value in assay [5] is “B (B=less than 200 fold, but greater than 20 fold)”. Besides, in assay [5], the “CDK5/CDK7: Selectivity of CDK7 inhibition over CDK5 inhibition” value was “C (C=less than 20 fold)”.

With `CC(C)c1cnn2c(NCc3ccccc3N3CCc4ccccc43)nc(N3CCC(N)CC3)nc12` [Compound 76], the IC50 in assay [1] was more than 1 µM; in assay [2] it was less than 1 µM; in assay [7], less than 1 µM; in assay [3] it was 0.1 to 1 µM; in assay [4], more than 1 µM; in assay [5], less than 0.1 µM. The molecule further came in with an IC50 in assay [6] of 1 to 10 µM. In addition, the “CDK1/CDK7: Selectivity of CDK7 inhibition over CDK1 inhibition” value in assay [5] is recorded as “A (A=greater than 200 fold)”. Further, the “CDK2/CDK7: Selectivity of CDK7 inhibition over CDK2 inhibition” value in assay [5] is recorded as “B (B=less than 200 fold, but greater than 20 fold)”. Also, the “CDK5/CDK7: Selectivity of CDK7 inhibition over CDK5 inhibition” value in assay [5] is recorded as “B (B=less than 200 fold, but greater than 20 fold)”.

Take `CC(C)c1cnn2c(NCc3ccccc3-c3cccs3)nc(N3CCC(N)CC3)nc12` [Compound 44]: the IC50 is 0.1 to 1 µM in assay [1]; less than 1 µM in assay [2]; less than 1 µM in assay [7]; less than 0.1 µM in assay [3]; 0.1 to 1 µM in assay [4]; less than 0.1 µM in assay [5]. The same molecule had an IC50 in assay [6] of 1 to 10 µM. The “CDK1/CDK7: Selectivity of CDK7 inhibition over CDK1 inhibition” value in assay [5] was “B (B=less than 200 fold, but greater than 20 fold)”. In addition, in assay [5], the “CDK2/CDK7: Selectivity of CDK7 inhibition over CDK2 inhibition” value was “B (B=less than 200 fold, but greater than 20 fold)”. For the same molecule, in assay [5], the “CDK5/CDK7: Selectivity of CDK7 inhibition over CDK5 inhibition” value is “B (B=less than 200 fold, but greater than 20 fold)”.

Take `CC(C)c1cnn2c(NCc3ccccc3-c3cc4ccccc4[nH]3)nc(N3CCC(C(N)=O)CC3)nc12` [Compound 117]: the IC50 in assay [1] was more than 1 µM; in assay [2] it was 1 to 10 µM; in assay [3], more than 1 µM; in assay [4], more than 1 µM; in assay [5], 0.1 to 1 µM; in assay [6] it was 1 to 10 µM. For the same molecule, in assay [5], the “CDK1/CDK7: Selectivity of CDK7 inhibition over CDK1 inhibition” value was “A (A=greater than 200 fold)”. The “CDK2/CDK7: Selectivity of CDK7 inhibition over CDK2 inhibition” value in assay [5] is “A (A=greater than 200 fold)”. Further, the “CDK5/CDK7: Selectivity of CDK7 inhibition over CDK5 inhibition” value in assay [5] is reported as “B (B=less than 200 fold, but greater than 20 fold)”.

Regarding `CC(C)c1cnn2c(NCc3ccccc3-c3cc4ccccc4[nH]3)nc(NC3CCOCC3)nc12` [Compound 114], the 50% inhibitory concentration (IC50) in assay [1] is more than 1 µM; in assay [2] it was 1 to 10 µM; in assay [3] it was more than 1 µM; in assay [4] it was more than 1 µM; in assay [5], 0.1 to 1 µM; in assay [6], 1 to 10 µM. Also, in assay [5], the “CDK1/CDK7: Selectivity of CDK7 inhibition over CDK1 inhibition” value is given as “A (A=greater than 200 fold)”. Also, in assay [5], the “CDK2/CDK7: Selectivity of CDK7 inhibition over CDK2 inhibition” value is listed as “B (B=less than 200 fold, but greater than 20 fold)”. Also, the “CDK5/CDK7: Selectivity of CDK7 inhibition over CDK5 inhibition” value in assay [5] is given as “B (B=less than 200 fold, but greater than 20 fold)”.

On to `CC(C)c1cnn2c(NCc3cccc4ccc(NC(=O)CCCN(C)C)nc34)nc(N3CCC(N)CC3)nc12` [Compound 95], for which the IC50 in assay [1] is more than 1 µM; in assay [2], less than 1 µM; in assay [3], 0.1 to 1 µM; in assay [4] it was 0.1 to 1 µM; in assay [5] it was less than 0.1 µM; in assay [6], 1 to 10 µM. Moreover, the “CDK1/CDK7: Selectivity of CDK7 inhibition over CDK1 inhibition” value in assay [5] is “A (A=greater than 200 fold)”. In assay [5], the “CDK2/CDK7: Selectivity of CDK7 inhibition over CDK2 inhibition” value is listed as “A (A=greater than 200 fold)”. For the same molecule, the “CDK5/CDK7: Selectivity of CDK7 inhibition over CDK5 inhibition” value in assay [5] is on record as “B (B=less than 200 fold, but greater than 20 fold)”.

Consider `CC(C)c1cnn2c(NCc3ccccc3-n3cc4cc(Br)ccc4n3)nc(N3CCC(N)CC3)nc12` [Compound 100], for which the concentration for half-maximal inhibition (IC50) in assay [2] is 1 to 10 µM; in assay [7], less than 1 µM; in assay [6] it was 1 to 10 µM.

On to `CC(C)c1cnn2c(NCc3ccccc3-n3cc4cc(-c5ccccc5)ccc4n3)nc(N3CCC(N)CC3)nc12` [Compound 101], for which the IC50 in assay [2], in assay [7] and in assay [6] was 1 to 10 µM throughout.

Turning to `CC(C)c1cnn2c(NCc3ccccc3NC(=O)c3ccccc3)nc(N3CCC(N)CC3)nc12` [Compound 87], the IC50 is more than 1 µM in assay [1]; less than 1 µM in assay [2]; 0.1 to 1 µM in assay [3]; more than 1 µM in assay [4]; less than 0.1 µM in assay [5]; 1 to 10 µM in assay [6]. Further, in assay [5], the “CDK1/CDK7: Selectivity of CDK7 inhibition over CDK1 inhibition” value is on record as “A (A=greater than 200 fold)”. Further, the “CDK2/CDK7: Selectivity of CDK7 inhibition over CDK2 inhibition” value in assay [5] is recorded as “A (A=greater than 200 fold)”. Moreover, in assay [5], the “CDK5/CDK7: Selectivity of CDK7 inhibition over CDK5 inhibition” value is reported as “B (B=less than 200 fold, but greater than 20 fold)”.
